According to US7427670B2, “Cytochrome P450 24 (CYP24) monoclonal antibody and methods and uses thereof” (Cytochroma Inc., priority 2003, dated 2008):

Tested on: CYP24 protein in HEK cells
Assay: CYP24 protein expression in HEK cells, Western blot with anti-CYP24 mAb and densitometric analysis
Format: cell-based, human
Conditions: 10 nM
Experimental: • Human Epidermal Keratinocyte Cells (HEK) cells (CYP24 expressing cells) • Keratinocyte Growth Medium (KGM®; Cambrex) • HEK Cell Lysis Buffer (0.5 M Tris, pH 6.8, 10% SDS, glycerol, dH2O, protease inhibitor) • 1.7 ml eppendorf tubes • Isopropanol • Enhanced Chemiluminescense (ECL) Western Blotting Detection Reagants (Amersham Pharmacia) • 10 nM Calcitriol (Vitamin D) • 10 nM CTAX (Cytochroma Inc.) (“Vitamin D analog”) • 10 nM CTAY (Cytochroma Inc.) (“Vitamin D analog”) • 10 nM CTAZ (Cytochroma Inc.) (“Vitamin D analog”) • 6-well plates (i) HEK Cell Preparation Method:
125 thousand HEK cells per well were placed in 2.5 ml KGM® (2 plates) and incubated overnight @ 37° C. in 5% CO2. After 24 hours, old KGM® was replaced with fresh 2.5 ml KGM®. For 48 hour samples (Plate 1): 2.5 μl isopropanol was added to 1 well; 2.5 μl 10 μM calcitriol was added to 1 well; 2.5 μl 10 μM CTAX was added to 1 well; 2.5 μl 10 μM CTAY was added to 1 well; 2.5 μl […] was added to 1 well. […]
The effect of CYP24 protein expression in HEK cells treated with CYP24 inhibitors was investigated. […] Cell lysates were then analyzed for CYP24 protein by Western blot analysis using anti-CYP24 mAb as the primary antibody. Each sample was expressed as a relative amount of CYP24 protein compared to the control (control=1 unit).

C=C1/C(=C\C=C2/CCC[C@]3(C)[C@@H]([C@H](C)CCCC(C)(C)O)CC[C@@H]23)C[C@@H](O)C[C@@H]1O [Calcitriol]
induction of CYP24 protein (relative to control = 1 unit) (24 hours): weakly induces | induction of CYP24 protein (relative to control = 1 unit) (48 hours): weakly induces
